Measurements as given in patent US11464749B2, “Bismuth-thiol compositions and methods of use” (Microbion Corporation, priority 2018, dated 2022).
In brackets after ≈: the same amount, converted by molar mass. Several values for one entry are separate records, joined by “and”; a condition that tells them apart may be missing. Equal values may be shown once. Read-outs that look alike come from different tables or passages of the source.

Legend:
Enterococcus spp. = assay: Broth microdilution MIC (Example 11); settings: read-out: MIC values
S. aureus ATCC 29213 = settings: control strain ATCC 29213; per CLSI M100-S24 or provided by Microbion; cited from earlier work
[1] = system: P. aeruginosa and A. baumannii; assay: Broth microdilution MIC (Example 11); settings: read-out: MIC values
Neisseria gonorrhoeae = assay: Agar dilution MIC (Example 11); type: cell-based
[2] = Rat nose-only inhalation study: whole blood and lung BisEDT; type: in vivo, F344 rats; settings: single inhalation dose 47 μg/kg, 8 hr
Method: Inhalation Exposure: The initial exposure of BisEDT (Bismuth-1,2-ethanedithiol) was formulated as […] at 100 mg/mL in suspension in 0.5% TWEEN 80®, 10 mM sodium phosphate, pH 7.4, in NaCl (adjusted to approximately 300 mOsm). Aerosols were generated with a commercial compressed air jet nebulizer, PAD LC PLUS®, operated with an inlet pressure of 20 psi.
Detailed gross necropsies were performed on all animals (found dead, moribund, or scheduled necropsy) and consisted of a complete external and internal examination including body orifices and cranial, thoracic, and abdominal organs and tissues. All gross findings will be recorded in descriptive terms. […] Lungs collected and weighed.

[3] = Face mask inhalation in beagle dogs: hematology; type: in vivo; settings: inhalation Day 0 and Day 7, successive samplings
Method: Once adequately conditioned to the restraint device and face-masks, the animals are individually exposed to the test article aerosols. Animals receive a single face-mask inhalation exposure in a ramp study design to test article aerosols for up to 60 min. Animal observations during and post exposure determine the tolerance of inhaled BisEDT aerosols.
Group 1 (vehicle) are exposed to a vehicle atmosphere for 30 minutes. Group 2 (50 μg/kg) are exposed to BisEDT for 30 minutes. Target concentrations and exposure durations for Groups 3-5 are based on the presence of any toxicity via clinical observations or gross necropsy findings. In each of Groups 3-5, if no adverse clinical signs of toxicity are observed, the next groups' exposure will be conducted at a higher target dose. If adverse clinical signs of toxicity are observed, the next groups' exposure will be conducted at a lower target dose. This approach is repeated for all BisEDT doses. The final documented exposure duration is the maximum tolerated dose or the maximum feasible dose.
The aerosol generation system couples a commercially available compressed air jet nebulizer to a chamber that allows the aerosols to transition to the animals. […]
Hematology samples are analyzed by automated (ADVIA™ 120 Hematology System, Siemens Medical Solutions Diagnostics, Tarrytown, N.Y.) analyses. Disposition will be recorded on the sample processing form.

B. cenocepacia = assay: Broth microdilution MIC (Example 10); settings: initial MIC testing
B. cepacia = assay: Broth microdilution MIC (Example 10); settings: initial MIC testing

CC(S)C(C)S.[Bi] (stereo not shown) [BisBDT, bismuth-2,3-butanedithiol]
MIC (Enterococcus spp.): 0.25 to 1 µg/mL
Expected MIC: goal (acceptable range) (S. aureus ATCC 29213): 0.25 mcg/mL and 0.25 (0.12-0.5) mcg/mL
MIC [1]: 0.5 to 2 µg/mL
MIC (Neisseria gonorrhoeae; ATCC49226, N. gonorrhoeae MMX 683 (ATCC 49226), QC): 0.06 µg/mL
MIC (Neisseria gonorrhoeae; N. gonorrhoeae MMX 6757, CTX NS): 0.06 µg/mL
MIC (Neisseria gonorrhoeae; N. gonorrhoeae MMX 6791, CIP^R): 0.12 µg/mL
MIC (Neisseria gonorrhoeae; N. gonorrhoeae MMX 6792, CIP^R): 0.12 µg/mL
MIC (Neisseria gonorrhoeae; N. gonorrhoeae MMX 6793, CIP^R): 0.25 µg/mL
MIC (Neisseria gonorrhoeae; read-out: MIC values, QC isolate, ciprofloxacin-resistant, ceftriaxone non-susceptible isolates): 0.06 to 0.25 µg/mL

C1C[S][Bi]([S]CC[S][Bi]2[S]CC[S]2)[S]1 [BisEDT, bismuth-1,2-ethanedithiol]
Mean BisEDT Conc, whole blood [2]: 114 ng/mL
LUC ([3]; dog Group 2, lung deposited 55-56 ug/kg, lines = animal 2001, 2002 or Grp Avg): 0.01 ^3/uL and 0.02 ^3/uL
LUC ([3]; dog Group 4, lung deposited 176-197 ug/kg, lines = animal 4001-4004 or Grp Avg): 0.01 ^3/uL and 0.02 ^3/uL

C[C@@H](O)[C@H]1C(=O)N2C(C(=O)O)=C(S[C@@H]3CN[C@H](C(=O)N(C)C)C3)[C@H](C)[C@H]12 [MEM]
MIC (B. cenocepacia; B. cenocepacia isolate 0548 (CIP-R)): 4 µg/mL (≈ 10.4 µM)
MIC (B. cenocepacia; B. cenocepacia isolate 0813 (CPI-I)): 2 µg/mL (≈ 5.22 µM)
MIC (B. cenocepacia; B. cenocepacia isolate 1631): 4 µg/mL (≈ 10.4 µM)
MIC (B. cenocepacia; B. cenocepacia isolate 1783): 4 µg/mL (≈ 10.4 µM)
MIC (B. cenocepacia; B. cenocepacia isolate 8555): 4 µg/mL (≈ 10.4 µM)
MIC (B. cepacia; B. cepacia isolate 0546): 4 µg/mL (≈ 10.4 µM)
MIC (B. cepacia; B. cepacia isolate 0547): 2 µg/mL (≈ 5.22 µM)
MIC (B. cepacia; B. cepacia isolate 1793): 4 µg/mL (≈ 10.4 µM)
MIC (B. cepacia; B. cepacia isolate 1794): 4 µg/mL (≈ 10.4 µM)
MIC (B. cepacia; B. cepacia isolate 9040): 4 µg/mL (≈ 10.4 µM)
